# Measured values published in publication PMC9804781, “Identification of a Novel Pseudo‐Natural Product Type IV IDO1 Inhibitor Chemotype” (Angewandte Chemie (International Ed. in English), 2022).
# Legend:
# [1] = target: T1, Recombinant human His-IDO1 (rhIDO1) (Homo sapiens, UniProt P14902); test: in vitro Kyn assay (IDO1 enzymatic assay); type: biochemical
# T1 construct: His; made in house; host or cells: E. coli
# Experimental: To detect direct inhibition, 1 µM rhIDO1 was incubated with compounds for 40 min at 37°C in 50 mM potassium phosphate buffer (16.9 mM K2HPO4, 33.1 mM, KH2PO4, pH 6.5).
# Subsequently, 10 mM ascorbic acid, 10 μM methylene blue, 2 mM L-Trp and 100 μg/mL catalase were added and samples were incubated for 60 min at room temperature or 37°C. Trichloroacetic acid was added to a final concentration of 7% (v/v) and samples were incubated for 30 min at 70°C. Afterwards, an equal volume of freshly prepared 2% (w/v) p-DMAB in glacial acetic acid (Ehrlich reagent) was added prior to measuring absorbance at 492 nm and 650 nm on the Spark® Multimode Microplate Reader (Tecan, AT). To determine the Kyn levels, the absorbance of the Kyn-p-DMAB adduct A492 was subtracted by the background absorbance A650 and normalized to the DMSO control. Data analysis was performed using a non-linear regression curve fit and GraphPad Prism 9.0 (GraphPad Software, Inc, US) to generate dose-response curves and obtain
# [2] = system: IDO1 protein levels; test: IDO1 protein levels (immunoblotting, In-Cell Western); type: cell-based; settings: immunoblotting (HeLa, IFN-γ, 24 h) and in-Cell western
# Experimental: Kit (QIAGEN, DE) following the manufacturer’s procedure. DNA was removed on column by […]
# DNase digestion with RNase-free DNase Set (QIAGEN, DE) according to the manufacturer’s […]
# instructions. Following the manufacturer’s protocol, cDNA templates were synthesized from […]
# 800 ng total RNA using the QuantiTect Reverse Transcription Kit (QIAGEN, DE).
# The expression levels of the IDO1 gene and the reference GAPDH were assessed by real-time […]
# quantitative PCR (qPCR). Therefore, 120 ng cDNA was amplified using 500 nM of gene-specific […]
# primers and SsoAdvanced Universal SYBR Green Supermix (Bio-Rad Laboratories, DE) in a total […]
# volume of 10 µL for 50 cycles using the CFX96 Touch™ Real-Time PCR Detection System (Bio- […]
# Rad Laboratories, DE). Relative IDO1 expression levels were calculated using the ΔΔCt method […]
# with GAPDH as reference gene[17] and represented using GraphPad Prism 9.0 (GraphPad […]
# and homogenized by sonication. Protein concentration was determined using the DC Protein […]
# 11 µM rhIDO1 was incubated with compounds at indicated concentrations for 60 min at 37°C in 50 mM potassium phosphate buffer (16.9 mM K2HPO4, 33.1 mM, KH2PO4, pH 6.5). The thermal protein stability from 20°C to 90°C (1°C/min) was measured by means of the intrinsic tryptophan/tyrosine fluorescence using the Prometheus™ NT.48 (NanoTemper® Technologies, […]
# [3] = target: T2, His-tagged IDO2 (Homo sapiens, UniProt Q6ZQW0); test: IDO2 Activity Assay; type: biochemical; settings: 50 µM; 90 min + 120 min at 30 °C
# T2 construct: His; purchased BPS Bioscience 72035 (kit)
# T2 sequence (Q6ZQW0 1-407): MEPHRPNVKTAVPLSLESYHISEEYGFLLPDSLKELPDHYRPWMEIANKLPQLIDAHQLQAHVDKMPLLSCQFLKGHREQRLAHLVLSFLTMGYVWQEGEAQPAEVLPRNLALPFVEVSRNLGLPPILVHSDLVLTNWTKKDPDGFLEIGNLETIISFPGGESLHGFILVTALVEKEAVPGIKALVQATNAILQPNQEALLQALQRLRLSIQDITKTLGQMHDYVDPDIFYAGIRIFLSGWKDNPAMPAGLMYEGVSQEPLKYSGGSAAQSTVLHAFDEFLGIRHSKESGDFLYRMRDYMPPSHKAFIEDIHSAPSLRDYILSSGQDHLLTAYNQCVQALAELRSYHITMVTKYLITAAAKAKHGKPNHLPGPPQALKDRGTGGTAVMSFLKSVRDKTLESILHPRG
# Experimental: Inhibition of indoleamine 2,3-dioxygenase 2 (IDO2) was tested using the Universal IDO1/IDO2/TDO Inhibitor Screening Assay Kit (cat# 72035, BPS Bioscience, US). 10 µg His-tagged IDO2 in IDO2 Assay Buffer was incubated with Complete IDO2 Reaction Solution (1% (v/v) component 2 in component 1) and 50 µM Test Inhibitor (0.5% (v/v) DMSO) for 90 min at 30°C with slow shaking in the dark prior to initiation of the reaction by addition of 20% (v/v) IDO2 Substrate. Samples were incubated for 120 min at 30°C with slow shaking in the dark. Afterwards, absorbance at 321 nm was recorded on the Spark® Multimode Microplate Reader (Tecan, AT), all values were subtracted by the background and normalized to the DMSO control.
# T1 sequence (P14902 whole entry): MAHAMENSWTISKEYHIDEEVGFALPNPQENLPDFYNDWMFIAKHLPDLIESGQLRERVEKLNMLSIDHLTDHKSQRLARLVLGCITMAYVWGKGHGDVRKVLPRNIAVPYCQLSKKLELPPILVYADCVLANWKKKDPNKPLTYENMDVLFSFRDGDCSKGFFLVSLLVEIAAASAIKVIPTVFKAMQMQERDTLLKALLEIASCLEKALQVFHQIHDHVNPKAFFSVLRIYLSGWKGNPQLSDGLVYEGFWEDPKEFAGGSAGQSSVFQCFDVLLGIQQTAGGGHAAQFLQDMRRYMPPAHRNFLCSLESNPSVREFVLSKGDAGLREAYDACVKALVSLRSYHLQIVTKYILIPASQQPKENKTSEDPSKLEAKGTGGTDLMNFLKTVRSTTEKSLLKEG
smiles,measurement,setting,value
CCOC(=O)C1=CC[C@](C(=O)OC)(c2cc3ccccc3n2C)N(S(=O)(=O)c2ccc(C)cc2)[C@@H]1C(=O)OC(C)(C)C [Compound 3d],IDO1 enzymatic assay activity at 25 °C,[1]; 25 °C,inactive
same,IDO1 activity after pre-incubation at 37 °C,"[1]; holo-IDO1, 40 min at 37 °C",decreased IDO1 activity
same,level of the IDO1 protein,[2],did not alter the level of the IDO1 protein
same,inhibition of IDO2 (result in words),[3],did not inhibit
